Measured values: US8013053B2, “Water-based inks for ink-jet printing” (Kao Corporation, priority 2005, dated 2011)

Experiments:
[1] = Surface tension of water containing nonionic organic compound; type: physicochemical; conditions: 25° C.; for Surface tension: water containing 0.001% by weight of the nonionic organic compound
From the text: (4) Method of Measuring Surface Tension of Water Containing Nonionic Organic Compound

[2] = Solubility of nonionic organic compound in water; type: physicochemical; conditions: for solubility in 100 g of water: 25° C.; for Solubility: in 100 g of water at 25° C.
From the text: (3) Method of Measuring Solubility of Nonionic Organic Compound

| Compound | surface tension of water containing 0.001% by weight of the nonionic organic compound [1] | Surface tension [1] | solubility in 100 g of water [2] | Solubility [2] |
| --- | --- | --- | --- | --- |
| CCCCCCCCC(O)CO (stereo not drawn) [1,2-decanediol] | 55 mN/m | 55 mN/m | 0.055 g | 0.055 g/100 g |
| CCCCCCCCCCC(O)CO (stereo not drawn) [1,2-dodecanediol] | 47.1 mN/m | 47.1 mN/m | 0.001 g | 0.001 g/100 g |
| CCCCC(O)CO (stereo not drawn) [1,2-hexanediol, reference compound] |  | 71.2 mN/m |  | ≧6 g/100 g |
| CCCCCCC(O)CO (stereo not drawn) [1,2-octanediol] | 65 mN/m | 65 mN/m | 0.20 g | 0.2 g/100 g |
| OCCCCCCCCO [1,8-octanediol, reference compound] |  | 70.7 mN/m |  | 1 g/100 g |
| CCCCC(CC)COCC(O)CO (stereo not drawn) [2-ethylhexyl monoglyceryl ether] | 62 mN/m | 62 mN/m | 0.15 g | 0.15 g/100 g |

The next lines start with the values.

| surface tension of water containing 0.001% by weight of the nonionic organic compound [1] | Surface tension [1] | solubility in 100 g of water [2] | Solubility [2] | Compound |
| --- | --- | --- | --- | --- |
| 57.8 mN/m | 57.8 mN/m | 0.05 g | 0.05 g/100 g | CC(C)CCCCCCCOCC(O)CO (stereo not drawn) [Isodecyl monoglyceryl ether] |
| 65 mN/m | 65 mN/m |  |  | Decanoic acid monogriceride |
| 63 mN/m | 63 mN/m | 0.005 g | 0.12 g/100 g | Lauric acid monogriceride |
